Where “and” joins values, the source holds several entries; their conditions need not be identical. Equal values may be shown once.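 Five compound concentrations were applied to cells in 96-well plates for 48 hours; endpoints were derived by simple linear interpolation of the resulting dose-response curve. At the GI50, growth is halved. TGI: concentration producing complete growth inhibition.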
What was measured:
Assay in all cases: growth of human tumour cells (NCI), 48 h
OVCAR-5 ovarian = system: OVCAR-5 ovarian
U251 CNS = system: U251 CNS
MOLT-4 leukemia = system: MOLT-4 leukemia
A498 renal = system: A498 renal
CCRF-CEM leukemia = system: CCRF-CEM leukemia
SK-MEL-28 melanoma = system: SK-MEL-28 melanoma
EKVX NSCLC = system: EKVX NSCLC
ACHN renal = system: ACHN renal
HCT-15 colon = system: HCT-15 colon
RXF 393 renal = system: RXF 393 renal

Compound	GI50 (OVCAR-5 ovarian) [µM]	TGI (OVCAR-5 ovarian) [µM]	GI50 (U251 CNS)	TGI (U251 CNS)	GI50 (MOLT-4 leukemia)	GI50 (A498 renal) [µM]	TGI (A498 renal) [µM]	GI50 (CCRF-CEM leukemia) [µM]	TGI (CCRF-CEM leukemia)	GI50 (SK-MEL-28 melanoma) [µM]	TGI (SK-MEL-28 melanoma)	GI50 (EKVX NSCLC)	TGI (EKVX NSCLC)	GI50 (ACHN renal)	TGI (ACHN renal)	GI50 (HCT-15 colon)	TGI (HCT-15 colon)	GI50 (RXF 393 renal)	TGI (RXF 393 renal)	TGI (MOLT-4 leukemia)
CC(=O)OC1OC([C@H]2c3cccc(O)c3C(=O)c3c(O)cc(C)cc32)C(O)C(O)C1O (stereo partly specified)	< 0.0296	4.71	< 0.0164 µM	0.244 µM	1.03 µM	0.105	0.589	0.444	2.25 µM	0.191	> 23.2 µM	0.198 µM	3.04 µM	0.0729 µM	0.437 µM	0.0385 µM	2 µM	< 0.0267 µM	0.346 µM	
CCOC(=O)[CH-]C(=O)C12CC3CC(CC(C3)C1)C2.CCOC(=O)[CH-]C(=O)C12CC3CC(CC(C3)C1)C2.CC[O-].CC[O-].[Ti+4]			> 100 µM	> 100 µM	> 100 µM	> 100	> 100	> 100	> 100 µM	> 100	> 100 µM			> 100 µM	> 100 µM					> 100 µM
COc1ccc(NC(=O)CC/C(CC(=O)c2ccco2)=N/NC(=O)C(N)=O)cc1		> 100					> 100		> 100 µM		> 100 µM		> 100 µM		> 100 µM		> 100 µM		> 100 µM	> 100 µM
O=c1[nH]c2ccccc2cc1-c1nc2ccc(Cl)cc2[nH]1	51.7	> 100	3.87 µM	> 100 µM		2.48	15.7	3.24	> 100 µM	6.66	45.7 µM	2.35 µM	> 100 µM	2.45 µM	> 100 µM	2.91 µM	> 100 µM			
Cc1ccc(S(=O)(=O)N/N=C2\CCCCC23CCC(=O)NC3)cc1 (stereo unspecified)				> 100 µM			> 100		> 100 µM		> 100 µM				> 100 µM		> 100 µM		> 100 µM	> 100 µM
Cc1cc(Cl)ccc1OCC(=O)Nc1nc2c(Cl)cccc2s1	50.4	> 100	8.32 µM	25.2 µM	6.94 µM	> 100	> 100	6.94	35.7 µM	> 100	> 100 µM	> 100 µM	> 100 µM	43.3 µM	> 100 µM	6.49 µM	> 100 µM			60.3 µM
CN(C)C/C=C/C(=O)Nc1ccc(C(=O)N[C@@]2(C)CCC[C@@H](Nc3ncc(Cl)c(-c4c[nH]c5ccccc45)n3)C2)nc1	0.0213	1.24			0.0178 µM	0.0189	0.0621	< 0.01	1.3 µM	< 0.01	0.118 µM	< 0.01 µM	0.564 µM	< 0.0108 µM	0.741 µM	0.0286 µM	1.05 µM	0.0144 µM	0.0344 µM	1.12 µM
N/N=C\c1c2ccccc2c(=O)n2c1oc1ccccc12	18.4	34.8	14.6 µM	27.7 µM	17.4 µM					18.8	38.7 µM	10.2 µM	26.2 µM	16.3 µM	29.9 µM	17.3 µM	34.6 µM	20 µM	52.5 µM	64.9 µM
COc1ccc([C@@]2(O)c3c(ccc(O)c3OC)[C@H]2OC)c(OC)c1		> 100		> 100 µM			> 100		> 100 µM		> 100 µM		> 100 µM		> 100 µM					> 100 µM
NC(CSC(c1ccccc1)(c1ccccc1)c1ccccc1)C(=O)NCC(=O)O (stereo unspecified)	22.5	> 100	3.64 µM	63.8 µM	16 µM	4.31	86.1	3.68	> 100 µM	8.19	> 100 µM			18.9 µM	> 100 µM	4.89 µM	> 100 µM	2.84 µM	19.5 µM	86.3 µM
Nc1ncc(-c2cnn(C3CCNCC3)c2)cc1-c1nc2cc(Cl)ccc2o1	1.77	3.22	1.38 µM	2.73 µM		1.71	3.12	0.222	0.541 µM	1.3	2.68 µM			1.65 µM	3.08 µM	0.495 µM	1.71 µM	1.55 µM	2.92 µM	
[N-]=[N+]=NCCCn1c2c(c3ccc([N+](=O)[O-])cc3c1=O)C(=O)c1ccccc1-2	> 100	> 100	4.28 µM	> 100 µM						> 100	> 100 µM	> 100 µM	> 100 µM	9.14 µM	> 100 µM	75.5 µM	> 100 µM	0.0923 µM	78.2 µM	> 100 µM
N#CCC(=O)N/N=C1/C(=O)N(c2ccc(Cl)cc2)C(=O)C(=O)C1c1nc2ccccc2s1 (stereo unspecified)		> 100		> 100 µM			> 100				> 100 µM		> 100 µM		> 100 µM		> 100 µM		> 100 µM	
O=C(Nc1cccc(O)c1)C(=O)C1C(=O)NC(=S)NC1=O				> 100 µM			> 100		> 100 µM		> 100 µM		> 100 µM		> 100 µM		> 100 µM		> 100 µM	> 100 µM
NC(CCCC(N)P(=O)(O)O)P(=O)(O)O (stereo unspecified)				> 100 µM			> 100		> 100 µM		> 100 µM		> 100 µM		> 100 µM		> 100 µM		> 100 µM	> 100 µM
CC(=O)C1C(c2ccccc2)C2(C)OC(=O)C(C#N)C12C (stereo unspecified)		> 100		> 100 µM					> 100 µM		> 100 µM		> 100 µM		> 100 µM		> 100 µM		> 100 µM	> 100 µM
CSC(SC)(C(=O)O)c1cc(-c2c(Cl)cccc2Cl)no1		> 100		> 100 µM					> 100 µM		> 100 µM		> 100 µM		> 100 µM		41.9 µM			> 100 µM
COc1ccc2c(c1)OC1=C(C(=O)OC1)C2c1cc(OC)c2c(c1)OCCO2 (stereo unspecified)	0.126	> 100	0.0433 µM		0.182 µM	0.0249	0.232	0.0647		0.0517	> 100 µM	0.0682 µM	> 100 µM	0.122 µM	> 100 µM	0.0531 µM	> 100 µM			> 100 µM

Compound	GI50 (OVCAR-5 ovarian) [µM]	TGI (OVCAR-5 ovarian) [µM]	GI50 (U251 CNS)	TGI (U251 CNS)	GI50 (MOLT-4 leukemia)	GI50 (A498 renal) [µM]	TGI (A498 renal) [µM]	GI50 (CCRF-CEM leukemia) [µM]	TGI (CCRF-CEM leukemia)	GI50 (SK-MEL-28 melanoma) [µM]	TGI (SK-MEL-28 melanoma)	GI50 (EKVX NSCLC)	TGI (EKVX NSCLC)	GI50 (ACHN renal)	TGI (ACHN renal)	GI50 (HCT-15 colon)	TGI (HCT-15 colon)	GI50 (RXF 393 renal)	TGI (RXF 393 renal)	TGI (MOLT-4 leukemia)
CCCCCCCCCCCCCP(=O)(O)O		> 100		> 100 µM			> 100		> 100 µM		> 100 µM		> 100 µM		> 100 µM		> 100 µM		> 100 µM	
O=C(O)CSCCc1ccccc1		> 100		> 100 µM			> 100				> 100 µM		> 100 µM		> 100 µM		> 100 µM		> 100 µM	> 100 µM
CNC(=O)OCc1c(COC(=O)NC)c(-c2ccc(-c3ccccc3)cc2)n(C)c1C		8.26		10.9 µM			2.39				28.7 µM		11.1 µM		4.27 µM		9.43 µM		2.91 µM	8.95 µM
CC(=O)c1ccc(NC(=O)/C(CC(=O)c2sc(-c3cccnc3)nc2C)=N/NC(N)=O)cc1		> 100		> 100 µM			> 100		66.5 µM		> 100 µM				56.1 µM		> 100 µM			46 µM
Cn1c(Cl)c(/C=C2/C(=O)Nc3ccccc32)c2ccccc21	3.85	27.8	0.758 µM	14.9 µM	0.139 µM			0.592	> 22.1 µM	1.08	19.7 µM		7.52 µM	1.15 µM	18.8 µM	0.16 µM	11.9 µM	0.392 µM	> 19.6 µM	
CCCCCCCCCCCCCCCCCCOC[C@H](COP(=O)(O)O[C@H]1[C@H](O)[C@@H](O)[C@H](O)C[C@H]1O)OC			33 µM and 5.89 µM	> 100 µM and 19.2 µM	27 µM and 12.4 µM		> 100		12.7 µM and 46 µM		> 100 µM and 33.8 µM	82.8 µM and 13.3 µM	> 100 µM and 26.8 µM	> 100 µM and 16.3 µM	> 100 µM and 30 µM	37.2 µM and 14.3 µM	> 100 µM and 28.9 µM	35.4 µM and 5.76 µM	> 100 µM and 21.1 µM	> 100 µM and 33 µM
CC1(O)C(C)(O)C2(C)O[Te]3(OC12C)OC1(C)C(C)(O)C(C)(O)C1(C)O3 (stereo unspecified)		29.4		23.8 µM					22.9 µM		38.1 µM		> 100 µM		> 100 µM		34.4 µM		37.6 µM	34.5 µM
COc1ccc(C=O)cc1O[Si](C)(C)C(C)(C)C		> 100		> 100 µM			> 100		> 100 µM				> 100 µM		> 100 µM		> 100 µM		> 100 µM	> 100 µM
CC(C)(C)c1cc([N+](=O)[O-])cc([N+](=O)[O-])c1O		> 10		> 10 µM					> 10 µM		> 10 µM		> 10 µM		> 10 µM		> 10 µM		> 10 µM	> 10 µM
COc1cc(Nc2ncccc2C(=O)Nc2nc3ccc(F)cc3s2)cc(OC)c1OC	25.6	> 100	3.01 µM	> 100 µM	2.11 µM	3.45	> 100	3.26	> 100 µM	4.33	> 100 µM	2.7 µM	> 100 µM	4.82 µM	> 100 µM	4.38 µM	> 100 µM			5.85 µM
NC1=NN(c2ccccc2)C(=O)C1C(=O)CCC(=O)Nc1cccc(Cl)c1 (stereo unspecified)		> 100		> 100 µM			> 100		> 100 µM		> 100 µM		> 100 µM		> 100 µM		> 100 µM		> 100 µM	
COc1ccc2c(c1)C(=O)CCc1cc(OC)c(OC)c(OC)c1-2			< 0.01 µM	0.18 µM	< 0.01 µM			< 0.01	> 100 µM	24.8	> 100 µM			0.0505 µM	> 100 µM	< 0.01 µM	> 100 µM			35.4 µM
COc1ccc(C(C#N)NC23CC4CC(CC(C4)C2)C3)cc1 (stereo unspecified)		> 100		> 100 µM					> 100 µM		> 100 µM		> 100 µM		> 100 µM		> 100 µM		> 100 µM	> 100 µM
CC(C)CNc1nc(-c2ccccc2Cl)nc2ccccc12	18.6	35.2	16.9 µM	30.5 µM	17.9 µM	18.5	32.6	18.8	43.3 µM	20.8	40.7 µM			15.1 µM	33.8 µM	17.1 µM	32.1 µM	15.1 µM	31.2 µM	54.9 µM
C[C@]12CC=CC(=O)[C@@]1(C)CCC(=O)C2		> 100		> 100 µM			> 100		> 100 µM		> 100 µM		> 100 µM		> 100 µM				> 100 µM	> 100 µM
N#C/C(=C/c1cccc(Oc2ccccc2)c1)c1ccccc1		> 100		> 100 µM			> 100		> 100 µM		> 100 µM		> 100 µM		> 100 µM		> 100 µM			> 100 µM
Cc1cn(C2CC(OC(=O)c3ccc(Cl)cc3)C(COC(=O)c3ccc(Cl)cc3)O2)c(=O)[nH]c1=O (stereo unspecified)		> 100		> 100 µM					> 100 µM		> 100 µM		> 100 µM		> 100 µM		> 100 µM			> 100 µM
Cc1ccc(S(=O)(=O)OC2CC=CC2)cc1		> 100		> 100 µM					> 100 µM		> 100 µM		> 100 µM		> 100 µM		> 100 µM		> 100 µM	> 100 µM
